Measured values taken from ChEMBL document CHEMBL1129429, “Structure-activity relationships for the binding of arylpiperazines and arylbiguanides at 5-HT3 serotonin receptors” (J Med Chem, 1996).

How the values were obtained:
[1] = target: Serotonin 3 (5-HT3) receptor; assay: Compound was tested for the inhibition of [3H]GR-65630 binding to 5-hydroxytryptamine 3 receptor expressed in NG 108-15 cells; assay type: cell-based
Oryctolagus cuniculus = species on record: Oryctolagus cuniculus; assay: Minimal effective dose for its 5-HT3 -Stimulant potency in rabbit bladder preparation.; assay type: functional
Rattus norvegicus [2] = species on record: Rattus norvegicus; assay: Compound tested for its 5-HT3 -Stimulant potency in rat relative to compound 6 ( Value = 1); assay type: functional
Rattus norvegicus [3] = species on record: Rattus norvegicus; assay: Compound tested for its 5-HT3 -Stimulant potency in rat relative to compound 6 ( Value = 1); Range 0.5-1.3; assay type: functional
Rattus norvegicus [4] = species on record: Rattus norvegicus; assay: Compound tested for its 5-HT3 -Stimulant potency in rat relative to compound 6 ( Value = 1); range 0.3-0.6; assay type: functional

Structure (SMILES) | Ki ([1]; read-out: Ki) [µM] | further results
Clc1ccc(N2CCNCC2)cc1 | 2.16 | –
N=C(N)Nc1ccccn1 | > 10 | –
NC=Nc1cccc(Cl)c1 | > 10 | –
Cc1cccc(N2CCN(C)CC2)n1 | 0.56 | –
COc1ccc(N2CCNCC2)c(C)c1 | 0.66 | –
C[N+]1(C)CCN(c2cccc(Cl)c2)CC1 | 1.45 | –
N=C(N)NCCc1ccc(Cl)cc1 | 0.243 | –
NCCNC(=O)c1cccc(Cl)c1 | > 10 | –
CNCCc1cccc(Cl)c1 | > 10 | –
N=C(N)NCCc1ccccc1Cl | 0.15 | –
CN(C)C(=N)N=C(N)Nc1cccc(Cl)c1 | > 10 | –
NCCC(=O)Nc1cccc(Cl)c1 | > 10 | –
CN(C)CCc1cccc(Cl)c1 | > 10 | –
NC(=O)Nc1cccc(Cl)c1 | > 10 | –
COc1ccc(N2CCNCC2)c(OC)c1 | > 10 | –
N=C(N)NCc1cccc(Cl)c1 | 1.2 | –
NCCCCc1cccc(Cl)c1 | > 10 | –
Clc1cccc(CC2=NCCN2)c1 | > 10 | –
N=C(N)NC(=N)Nc1cccc(Cl)c1 | 0.017 | Min effective dose (Oryctolagus cuniculus): 0.0066 mg/kg; Relative potency (Rattus norvegicus [2]): 1

Structure (SMILES) | Ki ([1]; read-out: Ki) [µM] | further results
NC(N)=Nc1cccc(Cl)c1 | 0.035 | Min effective dose (Oryctolagus cuniculus): 0.15 mg/kg; Relative potency (Rattus norvegicus [3]): 0.74
c1ccc(C2CCNCC2)cc1 | > 10 | –
NCCc1cccc(Cl)c1 | > 10 | –
FC(F)(F)c1cccc(N2CCNCC2)c1 | 1.39 | –
c1ccc2c(N3CCNCC3)cccc2c1 | 0.175 | –
c1ccc2cc(N3CCNCC3)ccc2c1 | 0.032 | Min effective dose (Oryctolagus cuniculus): 0.03 mg/kg; Relative potency (Rattus norvegicus [2]): <0.02
CN1CCN(c2ccc3ccccc3n2)CC1 | – | Ki [1]: 0.003 µM
Cc1cccc(NC(N)=NC(=N)N)c1 | 0.78 | –
Cc1ccc(NC(=N)N=C(N)N)cc1 | > 10 | –
Cc1cccc(NC(=N)N)c1 | 6.52 | –
COc1ccccc1C1(O)CCNCC1 | > 10 | –
NCCCc1cccc(Cl)c1 | > 10 | –
COc1ccc(Cl)cc1/N=C(\N)N=C(N)N | 0.126 | –
C[N+]1(C)CCN(c2cccc(C(F)(F)F)c2)CC1 | > 10 | –
NCCCNc1cccc(Cl)c1 | > 10 | –
Cc1ccc(NC(N)=NC(=N)N)cc1Cl | 0.225 | –
N=C(N)NC(=O)Nc1cccc(Cl)c1 | 1.25 | –
N=C(N)Cc1cccc(Cl)c1 | 1.2 | –
NC(N)=Nc1ccc2ccccc2c1 | 0.025 | Min effective dose (Oryctolagus cuniculus): 0.015 mg/kg; Relative potency (Rattus norvegicus [2]): 1

Structure (SMILES) | Ki ([1]; read-out: Ki) [µM] | further results
N=C(N)Nc1ccc(Cl)cc1 | 0.32 | –
NC(N)=Nc1ccccc1Cl | 0.19 | –
N=C(N)/N=C(\N)Nc1cccc([N+](=O)[O-])c1 | 0.22 | –
N=C(N)NC(=N)Nc1ccccc1Cl | 0.062 | –
N=C(N)NC(=N)Nc1ccc2ccccc2c1 | 0.012 | Min effective dose (Oryctolagus cuniculus): 0.01 mg/kg; Relative potency (Rattus norvegicus [2]): 0.5
COc1cccc(NC(=N)N)c1 | 1.6 | –
N=C(N)NCCc1cccc(Cl)c1 | 0.04 | –
NC(N)=Nc1cccc(C(F)(F)F)c1 | 5.7 | –
Clc1cccc(N2CCNCC2)n1 | 0.015 | –
COc1ccc(N2CCNCC2)cc1 | 1.64 | –
COc1ccc(Cl)cc1N1CCNCC1 | 0.04 | –
c1ccc2nc(N3CCCCC3)ccc2c1 | > 10 | –
COc1ccccc1N1CCNCC1 | 2.5 | –
N=C(N)NC(=N)Nc1ccc(Cl)cc1 [4-CHLOROPHENYLBIGUANIDE] | 0.2 | –
Clc1cccc(N2CCNCC2)c1 [CHLOROPHENYLPIPERAZINE] | 0.062 | Relative potency (Rattus norvegicus [2]): <0.02
N=C(N)NC(=N)Nc1ccccc1 [PHENYL BIGUANIDE] | 1.2 | Min effective dose (Oryctolagus cuniculus): 0.01 mg/kg; Relative potency (Rattus norvegicus [4]): 0.45
N=C(N)Nc1ccccc1 [PHENYLGUANIDINE] | 2.34 | –
c1ccc(N2CCNCC2)cc1 [PHENYLPIPERAZINE] | 3 | –
N=C(N)Nc1cccnc1 [PYRAXININE] | 2.91 | –
